target: T1, RgpB (Porphyromonas gingivalis, UniProt P95493); assay: RgpB inhibition, fluorogenic assay; assay type: biochemical; details: Activity (RgpB IC50), 0.02 nM RgpB, 10 μM Boc-Phe-Ser-Arg-MCA, 90 minutes, 37° C., pH=7.5
T1 construct: 0.02 nM RgpB, isolated from culture of Porphyromonas gingivalis; endogenous in cells
Method: The capacities of compounds of the present invention to inhibit the activity of RgpB were measured in a fluorogenic assay similar to those described in Barret Biochemical Journal. 1980, 187(3), 909. The specific assay conditions were as follows. Buffer: pH=7.5, 100 mM Tris-HCl, 75 mM NaCl, 2.5 mM CaCl2, 10 mM cysteine, 1% DMSO after all additions. Protein: 0.02 nM RgpB, isolated from culture of Porphyromonas gingivalis, as described in Pike et al. J. Biol. Chem. 1994, 269(1), 406, and Potempa and Nguyen. Current Protocols in Protein Scienc. 2007, 21.20.1-21.20.27. Fluorogenic substrate: 10 μM Boc-Phe-Ser-Arg-MCA. Time=90 minutes. Temperature=37° C. Each compound: 10 concentrations, starting at either 100 μM or 100 nM, with lower concentrations generated by serial 3-fold dilutions. By testing a range of concentrations for each compound, the concentration required to inhibit the activity of RgpB by 50% (the “IC50”) was determined.

T1 sequence (P95493 230-664): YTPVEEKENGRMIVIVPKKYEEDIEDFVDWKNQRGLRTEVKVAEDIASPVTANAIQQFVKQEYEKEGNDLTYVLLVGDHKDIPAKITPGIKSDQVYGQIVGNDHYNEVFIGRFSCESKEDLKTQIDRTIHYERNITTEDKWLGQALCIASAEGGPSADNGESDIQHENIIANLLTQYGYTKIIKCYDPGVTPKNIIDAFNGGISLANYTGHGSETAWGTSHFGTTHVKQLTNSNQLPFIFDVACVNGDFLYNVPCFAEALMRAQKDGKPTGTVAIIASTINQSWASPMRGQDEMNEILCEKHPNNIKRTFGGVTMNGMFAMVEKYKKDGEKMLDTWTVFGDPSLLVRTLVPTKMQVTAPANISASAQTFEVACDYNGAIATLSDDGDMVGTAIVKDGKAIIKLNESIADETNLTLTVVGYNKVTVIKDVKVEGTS

N#CN1C[C@H](O)C[C@@H]1c1ccc2c(N)nccc2c1 [Compound 49, (2R,4R)-2-(1-aminoisoquinolin-6-yl)-4-hydroxypyrrolidine-1-carbonitrile] and N#CN1C[C@@H](O)C[C@H]1c1ccc2c(N)nccc2c1 [Compound 50a, (2S,4S)-2-(1-aminoisoquinolin-6-yl)-4-hydroxypyrrolidine-1-carbonitrile] cannot be ordered by IC50: less than 100 nM for the first, less than 100 nM for the second.

N#CN1CCC[C@H]1CSc1ccnc(N)c1 [Compound 28, (S)-2-(((2-aminopyridin-4-yl)thio)methyl)pyrrolidine-1-carbonitrile] and N#CN1CCC[C@@H]1COc1ccnc(N)c1 [Compound 20, (R)-2-(((2-aminopyridin-4-yl)oxy)methyl)pyrrolidine-1-carbonitrile] fall in the same range of IC50: 1000 to 10000 nM for the first, 1000 to 10000 nM for the second.

Compared with N#CN1CC(Oc2ccnc(N)c2)C1 [Compound 7, 3-((2-aminopyridin-4-yl)oxy)azetidine-1-carbonitrile], N#CN1CCC(Oc2ccnc(N)c2)C1 (centres unmarked) [Compound 2, 3-((2-aminopyridin-4-yl)oxy)pyrrolidine-1-carbonitrile] is lower in IC50: greater than 100000 nM for the first, 100 to 1000 nM for the second.

Compared with Nc1cc(CC(NC(=O)C2CCCC2)C(=O)COc2c(F)cccc2F)ccn1 (centres unmarked) [Compound 55, N-(1-(2-aminopyridin-4-yl)-4-(2,6-difluorophenoxy)-3-oxobutan-2-yl)cyclopentanecarboxamide], Nc1cc(CC(NC(=O)C2CCCC2)C(=O)COc2ccon2)ccn1 (centres unmarked) [Compound 70, N-(1-(2-aminopyridin-4-yl)-4-(isoxazol-3-yloxy)-3-oxobutan-2-yl)cyclopentanecarboxamide] is higher in IC50: less than 100 nM for the first, 100 to 1000 nM for the second.

First: CNc1nccc2cc([C@@H]3CCCN3C#N)ccc12 [Compound 51a, (S)-2-(1-(methylamino)isoquinolin-6-yl)pyrrolidine-1-carbonitrile]
Second: N#CN1CCC[C@H]1c1ccc2c(N)nccc2c1 [Compound 44, (S)-2-(1-aminoisoquinolin-6-yl)pyrrolidine-1-carbonitrile]
The IC50 of the first is higher: 10000 to 100000 nM for the first, 100 to 1000 nM for the second.

First: CC(C)C(COc1ccnc(N)c1)N(C)C#N (centres unmarked) [Compound 34, N-(1-((2-aminopyridin-4-yl)oxy)-3-methylbutan-2-yl)-N-methylcyanamide]
Second: CC(COc1ccnc(N)c1)N(C)C#N (centres unmarked) [Compound 14, N-(1-((2-aminopyridin-4-yl)oxy)propan-2-yl)-N-methylcyanamide]
The IC50 of the first is higher: 1000 to 10000 nM for the first, 100 to 1000 nM for the second. The second is the more potent here.

N#CN1CCCCC1c1ccc2c(N)nccc2c1 (centres unmarked) [Compound 37, 2-(1-aminoisoquinolin-6-yl)piperidine-1-carbonitrile] and CN(C#N)Cc1ccc2c(N)nccc2c1 [Compound 26, N-((1-aminoisoquinolin-6-yl)methyl)-N-methylcyanamide] fall in the same range of IC50: 100 to 1000 nM for the first, 100 to 1000 nM for the second.

Cc1cnc(N)cc1OC[C@@H]1CCCN1C#N [Compound 29, (S)-2-(((2-amino-5-methylpyridin-4-yl)oxy)methyl)pyrrolidine-1-carbonitrile] and N#CN1CCC[C@H]1COc1cc(N)ncc1Cl [Compound 41, (S)-2-(((2-amino-5-chloropyridin-4-yl)oxy)methyl)pyrrolidine-1-carbonitrile] fall in the same range of IC50: 10000 to 100000 nM for the first, 10000 to 100000 nM for the second.

First: N#CN1CCCC1CCc1ccnc(N)c1 (centres unmarked) [Compound 21, 2-(2-(2-aminopyridin-4-yl)ethyl)pyrrolidine-1-carbonitrile]
Second: N#CN1CCC[C@H]1COc1ccnc(N)c1 [Compound 19, (S)-2-(((2-aminopyridin-4-yl)oxy)methyl)pyrrolidine-1-carbonitrile]
The IC50 of the first is higher: 100 to 1000 nM for the first, less than 100 nM for the second.

Compared with N#CN1CCCC(Oc2ccnc(N)c2)C1 (centres unmarked) [Compound 9, 3-((2-aminopyridin-4-yl)oxy)piperidine-1-carbonitrile], N#CN1CCC(COc2ccnc(N)c2)C1 (centres unmarked) [Compound 47, 3-(((2-aminopyridin-4-yl)oxy)methyl)pyrrolidine-1-carbonitrile] is higher in IC50: 100 to 1000 nM for the first, 1000 to 10000 nM for the second. The first is the more potent here.

COC(C)(C)C(=O)NC(Cc1ccc(N)nc1)C(=O)COc1c(F)ccc(F)c1F (centres unmarked) [Compound 61, N-(1-(6-aminopyridin-3-yl)-3-oxo-4-(2,3,6-trifluorophenoxy)butan-2-yl)-2-methoxy-2-methylpropanamide] and COC(C)(C)C(=O)NC(Cc1ccc(N)nc1)C(=O)COc1c(F)c(F)cc(F)c1F (centres unmarked) [Compound 60, N-(1-(6-aminopyridin-3-yl)-3-oxo-4-(2,3,5,6-tetrafluorophenoxy)butan-2-yl)-2-methoxy-2-methylpropanamide] cannot be ordered by IC50: less than 100 nM for the first, less than 100 nM for the second.

First: COC(C)(C)C(=O)NC(Cc1ccnc(N)c1)C(=O)COc1ccon1 (centres unmarked) [Compound 63, N-(1-(2-aminopyridin-4-yl)-4-(isoxazol-3-yloxy)-3-oxobutan-2-yl)-2-methoxy-2-methylpropanamide]
Second: Nc1ccc(CC(NC(=O)C2CCCC2)C(=O)COc2ccon2)cn1 (centres unmarked) [Compound 68, N-(1-(6-aminopyridin-3-yl)-4-(isoxazol-3-yloxy)-3-oxobutan-2-yl)cyclopentanecarboxamide]
The IC50 of the first is higher: 1000 to 10000 nM for the first, less than 100 nM for the second.

First: N#CN1Cc2ccccc2C1COc1ccnc(N)c1 (centres unmarked) [Compound 25, 1-(((2-aminopyridin-4-yl)oxy)methyl)isoindoline-2-carbonitrile]
Second: N#CN1c2ccccc2CC1COc1ccnc(N)c1 (centres unmarked) [Compound 24, 2-(((2-aminopyridin-4-yl)oxy)methyl)indoline-1-carbonitrile]
The IC50 of the first is lower: 100 to 1000 nM for the first, 10000 to 100000 nM for the second. The first is the more potent here.

CN(C#N)Cc1cc2c(N)nccc2o1 [Compound 4, N-((4-aminofuro[3,2-c]pyridin-2-yl)methyl)-N-methylcyanamide] and CC(C)N(C#N)CCc1ccnc(N)c1 [Compound 5, N-(2-(2-aminopyridin-4-yl)ethyl)-N-isopropylcyanamide] fall in the same range of IC50: 10000 to 100000 nM for the first, 10000 to 100000 nM for the second.

Compared with N#CN(CCOc1ccnc(N)c1)C1CCCCC1 [Compound 40, N-(2-((2-aminopyridin-4-yl)oxy)ethyl)-N-cyclohexylcyanamide], N#CN1CCC1COc1ccnc(N)c1 (centres unmarked) [Compound 11, 2-(((2-aminopyridin-4-yl)oxy)methyl)azetidine-1-carbonitrile] is higher in IC50: 10000 to 100000 nM for the first, greater than 100000 nM for the second.

N#CN1CCC[C@H]1C(O)Cc1ccnc(N)c1 (stereo partly drawn) [Compound 31, (2S)-2-(2-(2-aminopyridin-4-yl)-1-hydroxyethyl)pyrrolidine-1-carbonitrile] and CN(C#N)c1ccccc1Oc1ccnc(N)c1 [Compound 27, N-(2-((2-aminopyridin-4-yl)oxy)phenyl)-N-methylcyanamide] cannot be ordered by IC50: greater than 100000 nM for the first, greater than 100000 nM for the second.

Compound Nc1ccc(CC(NC(=O)C2CCCC2)C(=O)COc2c(F)c(F)cc(F)c2F)cn1 (centres unmarked) [Compound 53, N-(1-(6-aminopyridin-3-yl)-3-oxo-4-(2,3,5,6-tetrafluorophenoxy)butan-2-yl)cyclopentanecarboxamide] has an IC50 of less than 100 nM.

same assay, conditions: Activity (RgpB IC50), compound not tested above 1 μM; 0.02 nM RgpB, 10 μM Boc-Phe-Ser-Arg-MCA, 90 minutes, 37° C.

CN(C)c1nccc2cc([C@@H]3CCCN3C#N)ccc12 [Compound 52a, (S)-2-(1-(dimethylamino)isoquinolin-6-yl)pyrrolidine-1-carbonitrile] showed an IC50 greater than 1000 nM.

tested on: not given; assay: not given; details: in vivo, po; cited from earlier work

In the case of CN(NC(=O)CC[C@H](NC(=O)OCc1ccccc1)C(=O)N[C@@H](CCCCN)C(=O)C(=O)NCc1ccccc1)c1ccccc1 [Kyt-36], the half-life is listed as “increases the half-life”.

From patent US11059786B2, “Aminopyridine compounds and methods for the preparation and use thereof” (Cortexyme, Inc., priority 2017, dated 2021)
